In PMC11602988 (The Journal of Biological Chemistry, 2024):
Changes are numbered by the printed parent chain. Like-named read-outs stand apart in the source and are kept apart here.

Key:
OCT1 Phe244Ala variant [1] = biological target: T1, OCT1 Phe244Ala variant (Homo sapiens, UniProt O15245, F244A); assay: Concentration-dependent uptake kinetics, HEK293 cells overexpressing OCT1 Phe244Ala; details: for Clint: OCT1 Phe244Ala, ratio of vmax over Km; for Maximum transport capacity (vmax), Phe244Ala compared to WT: uptake kinetics, in words;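 for all read-outs here: cells exposed to rising substrate concentrations in buffer, intracellular drug measured by HPLC-tandem mass spectrometry, quantified against a standard curve, uptake referenced to empty vector-transfected HEK293 controls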
T1 sequence (O15245 1-554 F244A): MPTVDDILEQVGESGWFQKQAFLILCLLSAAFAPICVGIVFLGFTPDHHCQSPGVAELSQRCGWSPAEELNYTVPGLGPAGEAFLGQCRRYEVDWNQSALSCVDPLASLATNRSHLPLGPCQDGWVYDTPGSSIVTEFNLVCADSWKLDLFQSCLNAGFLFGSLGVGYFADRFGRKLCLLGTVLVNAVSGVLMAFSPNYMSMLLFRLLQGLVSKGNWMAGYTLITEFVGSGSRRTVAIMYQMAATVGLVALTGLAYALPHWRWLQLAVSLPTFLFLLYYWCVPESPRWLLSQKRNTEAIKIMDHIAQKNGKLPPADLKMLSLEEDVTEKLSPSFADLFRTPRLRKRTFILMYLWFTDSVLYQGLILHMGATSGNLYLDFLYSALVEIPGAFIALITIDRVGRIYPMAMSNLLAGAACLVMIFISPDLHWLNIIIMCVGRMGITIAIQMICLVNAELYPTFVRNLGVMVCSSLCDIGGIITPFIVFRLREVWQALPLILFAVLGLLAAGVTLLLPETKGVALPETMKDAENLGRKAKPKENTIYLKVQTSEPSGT

OCT1 WT [2] = biological target: T2, OCT1 WT (Homo sapiens, UniProt O15245); assay: Concentration-dependent uptake kinetics, HEK293 cells overexpressing OCT1 WT; details: for Clint: OCT1 WT, ratio of vmax over Km
T2 sequence (O15245 1-554): T1 sequence (O15245 1-554 F244A) with A244F

OCT1 WT [3] = biological target: T2, OCT1 WT; assay: Stereoselective cell uptake of racemic substrates (chiral LC-MS/MS), OCT1 WT; details: 2.5 μM racemic substance, 2 min
OCT1 WT [4] = biological target: T2, OCT1 WT; assay: Uptake screening (transport ratio over empty vector), HEK293 cells overexpressing OCT1 WT; format: cell-based; parameters: expressed in transfected cells;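 note: intracellular substrate levels quantified by HPLC–tandem mass spectrometry after uptake in HBSS+ buffer at 37 °C, stable Flp-In HEK293 lines, fold change versus empty vector–transfected cells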
OCT1 Phe244Ala variant [5] = biological target: T1, OCT1 Phe244Ala variant; assay: Stereoselective cell uptake of racemic substrates (chiral LC-MS/MS), OCT1 Phe244Ala variant; details: 2.5 μM racemic substance, 2 min
OCT1 Phe244Ala variant [6] = biological target: T1, OCT1 Phe244Ala variant; assay: Uptake screening (transport ratio over empty vector), HEK293 cells overexpressing OCT1 Phe244Ala variant; format: cell-based; parameters: expressed in transfected cells;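 note: stably transfected HEK293 cells, intracellular substrate quantified by HPLC-tandem mass spectrometry in cell lysates, uptake in HBSS+ buffer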
OCT1 Phe244Ala variant [7] = biological target: T1, OCT1 Phe244Ala variant; assay: Inhibition of (R,S)-ethambutol uptake, HEK293 cells overexpressing OCT1 Phe244Ala; details: 20 μM inhibitor, 2 μM (R,S)-ethambutol, 5 min
[8] = uptake ratio over empty vector, HEK293 cells overexpressing OCT1 WT
[9] = Phe244Ala uptake relative to OCT1 WT
[10] = uptake ratio over empty vector, HEK293 cells overexpressing OCT1 Phe244Ala

| Compound | Mean_transport_ratio_WT (OCT1 WT [4]; [8]) | relative_Phe244Ala_uptake_in% (OCT1 Phe244Ala variant [6]; [9]) | Mean_transport_ratio_Phe244Ala (OCT1 Phe244Ala variant [6]; [10]) | other results |
| --- | --- | --- | --- | --- |
| CCN1CCCC1CNC(=O)c1cc(S(N)(=O)=O)ccc1OC (stereo not shown) [Sulpiride] | – | – | – | vmax (OCT1 Phe244Ala variant [1]): 418 ± 65 pmol × mg protein^−1 × min^−1; Clint (OCT1 Phe244Ala variant [1]): 4.01 ± 3.27 ml × g Protein^−1 × min^−1; vmax (OCT1 WT [2]): 237 ± 49.7 pmol × mg protein^−1 × min^−1; Clint (OCT1 WT [2]): 2.65 ± 3.09 ml × g Protein^−1 × min^−1 |
| Cc1cc(C(C)(C)C)cc(C)c1CC1=NCCN1 [Xylometazoline] | 2.256 | 242.447% | 4.046 | – |
| CN(C)CCc1c[nH]c2ccc(C[C@H]3COC(=O)N3)cc12 [Zolmitriptan] | – | – | – | Clint (OCT1 Phe244Ala variant [1]): 13.3 ± 17.5 ml × g Protein^−1 × min^−1; Maximum transport capacity (vmax), Phe244Ala compared to WT (OCT1 Phe244Ala variant [1]): reduced transport capacity; Clint (OCT1 WT [2]): 21.6 ± 26.4 ml × g Protein^−1 × min^−1 |
| NCCc1cccc(O)c1 [m-Tyramine] | 6.001 | 13.730% | 1.687 | – |
| NCCc1ccc(O)cc1 [p-Tyramine] | 4.809 | 11.429% | 1.435 | – |
| (-)-Sparteine | – | – | – | Mean_transport_ratio_WT (OCT1 WT [4]): 5.032; Mean_transport_ratio_Phe244Ala (OCT1 Phe244Ala variant [6]): 4.411; relative_Phe244Ala_uptake_in% (OCT1 Phe244Ala variant [6]): 84.604% |

Further lines, with some results ahead:

| Mean_transport_ratio_WT (OCT1 WT [4]; [8]) | relative_Phe244Ala_uptake_in% (OCT1 Phe244Ala variant [6]; [9]) | Mean_transport_ratio_Phe244Ala (OCT1 Phe244Ala variant [6]; [10]) | Compound | other results |
| --- | --- | --- | --- | --- |
| 3.001 | 40.118% | 1.803 | CCOc1ccccc1OCCN[C@H](C)Cc1ccc(OC)c(S(N)(=O)=O)c1 [Tamsulosin] | Stereoselectivity of uptake via WT OCT1 (OCT1 WT [3]): stereoselective uptake; Stereoselectivity of transport by the Phe244Ala variant (OCT1 Phe244Ala variant [5]): lacked any stereoselective transport |
| 42.169 | 21.749% | 9.954 | Cc1ncc(C[n+]2csc(CCO)c2C)c(N)n1 [Thiamine] | Clint (OCT1 Phe244Ala variant [1]): 2.70 ± 5.44 ml × g Protein^−1 × min^−1; Maximum transport capacity (vmax), Phe244Ala compared to WT (OCT1 Phe244Ala variant [1]): reduced transport capacity; Clint (OCT1 WT [2]): 7.51 ± 8.28 ml × g Protein^−1 × min^−1 |
| 3.204 | 23.542% | 1.519 | COc1cc(Cc2cnc(N)nc2N)cc(OC)c1OC [Trimethoprim] | Inhibition of the Phe244Ala mutant compared to the WT transporter (screening) (OCT1 Phe244Ala variant [7]): strongly reduced inhibition |
| 6.027 | 127.145% | 7.391 | OC(c1ccccc1)(c1ccccc1)C12CC[N+](CCOCc3ccccc3)(CC1)CC2 [Umeclidinium] | – |
| 1.907 | 478.904% | 5.345 | C=CCN1CCCC1CNC(=O)c1cc(S(N)(=O)=O)cc(OC)c1OC (stereo not shown) [Veralipride] | – |
| 18.329 | 88.784% | 16.385 | COCCn1c2c([n+](Cc3cnccn3)c1C)C(=O)c1ccccc1C2=O [YM155] | – |
